The record followed here is the Kinase Knowledgebase extract (Sharma et al. 2016).

Structures are written as SMILES. Where only a bound is given, the exact number is not on record here.

Chain of PIK3CA (human) (P42336 whole entry, looked up): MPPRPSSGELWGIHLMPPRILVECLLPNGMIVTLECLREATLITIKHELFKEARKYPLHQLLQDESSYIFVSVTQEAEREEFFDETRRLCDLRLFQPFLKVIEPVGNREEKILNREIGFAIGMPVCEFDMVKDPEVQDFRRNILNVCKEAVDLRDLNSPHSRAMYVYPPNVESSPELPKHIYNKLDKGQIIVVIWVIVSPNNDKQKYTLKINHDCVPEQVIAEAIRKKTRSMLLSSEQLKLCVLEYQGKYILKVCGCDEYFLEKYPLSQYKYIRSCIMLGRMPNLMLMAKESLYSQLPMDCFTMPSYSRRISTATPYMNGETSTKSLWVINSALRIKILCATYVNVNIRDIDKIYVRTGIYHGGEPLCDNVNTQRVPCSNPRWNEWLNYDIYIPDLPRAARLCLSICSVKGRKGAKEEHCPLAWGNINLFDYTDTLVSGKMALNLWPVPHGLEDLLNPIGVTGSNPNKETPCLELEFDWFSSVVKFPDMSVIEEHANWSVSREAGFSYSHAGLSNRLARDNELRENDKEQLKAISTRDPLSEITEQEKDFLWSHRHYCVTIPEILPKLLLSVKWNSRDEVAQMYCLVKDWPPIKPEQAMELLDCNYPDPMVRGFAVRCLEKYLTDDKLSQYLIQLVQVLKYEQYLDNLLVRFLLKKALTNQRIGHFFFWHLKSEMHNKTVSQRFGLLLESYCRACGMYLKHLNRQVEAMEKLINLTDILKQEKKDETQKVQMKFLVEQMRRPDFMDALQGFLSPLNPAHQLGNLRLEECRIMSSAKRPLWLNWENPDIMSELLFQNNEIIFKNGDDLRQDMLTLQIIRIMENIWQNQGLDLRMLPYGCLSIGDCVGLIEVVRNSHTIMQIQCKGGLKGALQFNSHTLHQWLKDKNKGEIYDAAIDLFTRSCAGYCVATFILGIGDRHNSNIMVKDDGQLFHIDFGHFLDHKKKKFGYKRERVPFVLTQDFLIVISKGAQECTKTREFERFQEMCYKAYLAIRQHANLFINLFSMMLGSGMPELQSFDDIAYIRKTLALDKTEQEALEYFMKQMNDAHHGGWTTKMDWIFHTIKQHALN

This experiment has as its target PIK3CA (human) (UniProt P42336). The experiment can be described thus: Assessment of PIK3CA Kinase Activity.
For the compound `CC(C)n1ncnc1-c1cn2c(n1)-c1ccc(-c3cnn(C(C)(C)C(N)=O)c3)cc1OCC2`, the IC50 is < 1 µM.

With `Cc1nc(-c2cn3c(n2)-c2cnc(N4CCC[C@H]4C(N)=O)cc2OCC3)n(CC(F)(F)F)n1`, the IC50 was < 1 µM.

In the case of `CC(C)n1ncnc1-c1cn2c(n1)-c1cnc(O[C@H](C)C(N)=O)cc1OCC2`, the concentration for half-maximal inhibition (IC50) is < 1 µM.

As to `Cc1nc(-c2cn3c(n2)-c2cnc(NCC(=O)O)cc2OCC3)n(C(C)C)n1`, the IC50 is < 1 µM.

Turning to `CC(C)n1nc(CC(N)=O)nc1-c1cn2c(n1)-c1ccc(Br)cc1OCC2`, the IC50 is < 1 µM.

For the compound `Cc1nc(-c2cn3c(n2)-c2ccc(C#N)cc2OCC3)n(C(C)C)n1`, the 50% inhibitory concentration (IC50) is < 1 µM.

Turning to `CC(C)n1ncnc1-c1cn2c(n1)-c1ccc([C@@H]3C[C@H]4CC[C@@H](C3)N4CC(N)=O)cc1OCC2`, the IC50 is < 1 µM.

Consider `CC(C)n1ncnc1-c1cn2c(n1)-c1cnc(N3CCOCC3)cc1OCC2`, for which the IC50 is < 1 µM.

For `CC(C)n1ncnc1-c1cn2c(n1)-c1ccc(C(=O)NO)cc1OCC2`, the IC50 is < 1 µM.

Turning to `CC(C)n1ncnc1-c1cn2c(n1)-c1ccc(C3CCN(CC(=O)NC(C)(C)C)CC3)cc1OCC2`, the concentration for half-maximal inhibition (IC50) is < 1 µM.

In the case of `CC[C@H](Oc1ccc2c(c1)OCCn1cc(-c3ncnn3CC(F)(F)F)nc1-2)C(N)=O`, the IC50 was < 1 µM.

Take `Cc1nc(-c2cn3c(n2)-c2ccc(-c4cnn(CC(C)(C)O)c4)cc2OCC3)n(C(C)C)n1`: the IC50 is < 1 µM.

As for `Cc1nc(-c2cn3c(n2)-c2ccc(-c4cnn(C)c4)cc2OCC3)n(C(C)C)n1`, the IC50 is < 1 µM.

Take `Nc1nc(-c2cn3c(n2)-c2cc(-c4ccccc4)ccc2OCC3)n(-c2ccccc2Cl)n1`: the IC50 was < 1 µM.

In the case of `Cc1nc(-c2cn3c(n2)-c2cc(-c4ccc[nH]c4=O)ccc2OCC3)n(C(C)C)n1`, the half-maximal inhibitory concentration (IC50) is < 1 µM.

`Cc1nc(-c2cn3c(n2)-c2ccc(C4CCN(CC(N)=O)CC4)cc2OCC3)n(C(C)C)n1`: the IC50 is < 1 µM.

With `Cc1nc(-c2cn3c(n2)-c2cnc(NCC(N)=O)cc2OCC3)n(C(C)C)n1`, the IC50 is < 1 µM.

For `NC(=O)CNc1cc2c(cn1)-c1nc(-c3ncnn3CC(F)(F)F)cn1CCO2`, the IC50 is < 1 µM.

Consider `CC(C)N1CCC(c2ccc3c(c2)OCCn2cc(-c4ncnn4C(C)C)nc2-3)C(C(N)=O)C1` (stereo not given), for which the IC50 is < 1 µM.

For `Cc1nc(-c2cn3c(n2)-c2ccc(-c4cn(CCO)cn4)cc2OCC3)n(C(C)C)n1`, the IC50 is < 1 µM.

Turning to `CC(C)n1ncnc1-c1cn2c(n1)-c1ccc(C3=C(C(N)=O)CN(C)CC3)cc1OCC2`, the IC50 is < 1 µM.

On to `C[C@H](Oc1ccc2c(c1)OCCn1cc(-c3ncnn3CC(F)(F)F)nc1-2)C(N)=O`, for which the half-inhibitory concentration (IC50) was < 1 µM.

With `COC(=O)C(C)(C)n1cc(-c2ccc3c(c2)OCCn2cc(-c4nc(C)nn4C(C)C)nc2-3)cn1`, the concentration for half-maximal inhibition (IC50) is < 1 µM.

Turning to `Cc1nc(-c2cn3c(n2)-c2ccc(C(F)F)cc2OCC3)n(C(C)C)n1`, the IC50 is < 1 µM.

Take `Cc1nc(-c2cn3c(n2)-c2cc(F)c(F)cc2OCC3)n(C(C)C)n1`: the IC50 was < 1 µM.

Turning to `NC(=O)C1(Oc2ccc3c(c2)OCCn2cc(-c4ncnn4CC(F)(F)F)nc2-3)CC1`, the IC50 was < 1 µM.

On to `Cc1nc(-c2cn3c(n2)-c2cnc(N4CC[C@@H](O)[C@H]4C(N)=O)cc2OCC3)n(C(C)C)n1`, for which the IC50 is < 1 µM.

In the case of `Cc1nc(-c2cn3c(n2)-c2ccc(-c4cncc(F)c4)cc2OCC3)n(C(C)C)n1`, the IC50 was < 1 µM.

With `NC(=O)CN1CCC(c2ccc3c(c2)-c2nn(-c4ncnn4-c4ccc(F)cc4F)cc2CCO3)CC1`, the concentration for half-maximal inhibition (IC50) was < 1 µM.

With `CC(C)n1ncnc1-c1cn2c(n1)-c1ccc(N3CC[C@H]3C(N)=O)cc1OCC2`, the half-inhibitory concentration (IC50) was < 1 µM.

In the case of `CC(C)n1ncnc1-c1cn2c(n1)-c1ccc(-c3cnc(CC(C)(C)O)[nH]3)cc1OCC2`, the IC50 is < 1 µM.

On to `CC(Sc1ccc2c(c1)OCCn1cc(-c3ncnn3C(C)C)nc1-2)C(N)=O` (stereo not given), for which the IC50 was < 1 µM.

`Cc1nc(-c2cn3c(n2)-c2ccc([C@H]4CCCN4C(N)=O)cc2OCC3)n(C(C)C)n1`: the concentration for half-maximal inhibition (IC50) is < 1 µM.

As for `CNC(=O)CN1CCC(c2ccc3c(c2)OCCn2cc(-c4nc(C)nn4C(C)C)nc2-3)CC1`, the IC50 is < 1 µM.

Regarding `Cc1ccc2c(c1)OCCn1cc(-c3nc(C)nn3C(C)C)nc1-2`, the IC50 was < 1 µM.

As to `CC(C)(O)CN1CC(c2ccc3c(c2)OCCc2cn(-c4ncnn4-c4ccc(F)cc4F)nc2-3)C1`, the IC50 was < 1 µM.

With `Cc1nc(-c2cn3c(n2)-c2ccc(C4CCN(CC(=O)NC(C)C)CC4)cc2OCC3)n(C(C)C)n1`, the IC50 is < 1 µM.

As for `OCc1nc(-c2cn3c(n2)-c2cnc(Cl)cc2OCC3)n(CC(F)(F)F)n1`, the concentration for half-maximal inhibition (IC50) is < 1 µM.

As for `C[C@@H]1CN(C(=O)c2ccc3c(c2)-c2nc(-c4ncnn4CC(F)(F)F)cn2CCO3)C[C@H](C)N1`, the IC50 is < 1 µM.

`Cc1nc(-c2cn3c(n2)-c2cnc(NCC(N)=O)cc2OCC3)n(CC(F)(F)F)n1`: the IC50 is < 1 µM.

As for `CC(C)n1ncnc1-c1cn2c(n1)-c1cnc(N3C4CCC3C(=O)NC4)cc1OCC2` (stereo not given), the IC50 is < 1 µM.

With `Cc1nc(-c2cn3c(n2)-c2cc(F)ccc2OCC3)n(C(C)C)n1`, the IC50 was < 1 µM.

With `CC(C)N1CCN(C(=O)c2ccc3c(c2)-c2nc(-c4ncnn4CC(F)(F)F)cn2CCO3)CC1`, the IC50 is < 1 µM.

For the compound `Cc1nc(-c2cn3c(n2)-c2cnc(N4CCC[C@H]4C(N)=O)cc2OCC3)n(-c2cc(F)cc(F)c2)n1`, the IC50 is < 1 µM.

Regarding `CC(C)n1nc(N)nc1-c1cn2c(n1)-c1cc(F)c(F)cc1OCC2`, the IC50 was < 1 µM.

As for `Nc1cc2c(cn1)-c1nc(-c3ncnn3CC(F)(F)F)cn1CCO2`, the IC50 was < 1 µM.

For the compound `CCNC(=O)CN1CCC(c2ccc3c(c2)OCCn2cc(-c4nc(C)nn4C(C)C)nc2-3)CC1`, the IC50 was < 1 µM.

For the compound `CC(C)n1ncnc1-c1cn2c(n1)-c1cnc(NCC(O)c3nccn3C)cc1OCC2` (stereo not given), the IC50 is < 1 µM.

Turning to `CC(C)n1ncnc1-c1cn2c(n1)-c1ccc(C3CCN(CCS(C)(=O)=O)CC3)cc1OCC2`, the half-maximal inhibitory concentration (IC50) was < 1 µM.

In the case of `Clc1ccc(-c2ccc3c(c2)OCCn2cc(-c4ncnn4-c4ccccc4Cl)nc2-3)cc1`, the IC50 is < 1 µM.

Consider `CC(C)n1ncnc1-c1cn2c(n1)-c1ccc(C3CN(CC(N)=O)C3)cc1OCC2`, for which the IC50 was < 1 µM.

For the compound `CC(C)n1ncnc1-c1cn2c(n1)-c1ccc(-c3cncn3CCO)cc1OCC2`, the 50% inhibitory concentration (IC50) is < 1 µM.

For `CS(=O)(=O)CCN1CCC(c2ccc3c(c2)-c2nn(-c4ncnn4-c4ccc(F)cc4F)cc2CCO3)CC1`, the IC50 was < 1 µM.

With `CC(C)n1ncnc1-c1cn2c(n1)-c1cc(C(F)F)ncc1OCC2`, the IC50 is < 1 µM.

Take `CC(C)n1ncnc1-c1cn2c(n1)-c1ccc(C3CCN(CC(=O)N(C)C)CC3O)cc1OCC2` (stereo not given): the 50% inhibitory concentration (IC50) was < 1 µM.

For `O=C(Nc1cn[nH]c1)c1ccc2c(c1)-n1nc(-c3ncnn3CC(F)(F)F)cc1CCO2`, the IC50 is < 1 µM.

Turning to `Cc1nc(-c2cn3c(n2)-c2ccc(C4COC4)cc2OCC3)n(C(C)C)n1`, the IC50 is < 1 µM.

For `Cc1nc(-c2cn3c(n2)-c2ccc(C4CC4)cc2OCC3)n(C(C)CO)n1` (stereo not given), the IC50 was < 1 µM.

As to `CC(C)n1ncnc1-c1cn2c(n1)-c1ccc(C3CCN(CC(C)(C)O)CC3)cc1OCC2`, the IC50 was < 1 µM.

For `CC[C@H](Oc1ccc2c(c1)OCCn1cc(-c3ncnn3C(C)C)nc1-2)C(N)=O`, the half-maximal inhibitory concentration (IC50) is < 1 µM.

For `CC(C)n1ncnc1-c1cn2c(n1)-c1ccc(C3C(=O)NNC3=O)cc1OCC2`, the IC50 was < 1 µM.

Consider `CC(C)n1nc(N)nc1-c1cn2c(n1)-c1ccc(-c3cn(CCO)cn3)cc1OCC2`, for which the IC50 was < 1 µM.

Turning to `Nc1nc(-c2cn3c(n2)-c2cc(C(F)(F)F)ccc2OCC3)n(CC(F)(F)F)n1`, the IC50 was < 1 µM.

For the compound `CC(C)C(Oc1cc2c(cn1)-c1nc(-c3ncnn3C(C)C)cn1CCO2)C(N)=O` (stereo not given), the IC50 was < 1 µM.

For the compound `COc1ccc(CNc2cc3c(cn2)-c2nc(-c4nc(C)nn4CC(F)(F)F)cn2CCO3)cc1OC`, the IC50 is < 1 µM.

For `NC(=O)[C@@H]1CNCCN1c1ccc2c(c1)OCCn1cc(-c3ncnn3CC(F)(F)F)nc1-2`, the IC50 was < 1 µM.

For `Cc1nc(-c2cn3c(n2)-c2ccc(C4CCN(CC(=O)N(C)C)CC4)cc2OCC3)n(C(C)C)n1`, the IC50 is < 1 µM.

As for `Cc1nc(-c2cn3c(n2)-c2ccc(CN)cc2OCC3)n(-c2ccc(F)cc2F)n1`, the IC50 is < 1 µM.

Consider `NC(=O)[C@@H]1CCCN1c1cc2c(cn1)-c1nc(-c3ncnn3CC(F)(F)F)cn1CCO2`, for which the IC50 is < 1 µM.

With `CNC(=O)c1ccc2c(c1)OCCn1cc(-c3ncnn3CC(F)(F)F)nc1-2`, the IC50 was < 1 µM.

Consider `CC(C)n1ncnc1-c1cn2c(n1)-c1ccc(OC(C(N)=O)C3CC3)cc1OCC2` (stereo not given), for which the IC50 is < 1 µM.

As to `COC(=O)c1ccc2c(c1)OCCn1cc(-c3ccccc3C(C)C)nc1-2`, the IC50 was < 1 µM.

On to `CC(C)(CO)NC(=O)c1ccc2c(c1)OCCn1cc(-c3ncnn3-c3ccccc3Cl)nc1-2`, for which the IC50 is < 1 µM.

As to `Cc1nc(-c2cn3c(n2)-c2cc(C#N)ccc2OCC3)n(C(C)C)n1`, the half-maximal inhibitory concentration (IC50) is < 1 µM.

Take `Nc1nc(-c2cn3c(n2)-c2cc(-c4ccc(Cl)cc4)ccc2OCC3)n(-c2ccccc2Cl)n1`: the 50% inhibitory concentration (IC50) was < 1 µM.

As for `CC(C)n1ncnc1-c1cn2c(n1)-c1ccc(-c3cnn(C(C)(C)C(=O)O)c3)cc1OCC2`, the IC50 was < 1 µM.

`CNC(=O)CN1CC(c2ccc3c(c2)OCCn2cc(-c4ncnn4C(C)C)nc2-3)C1`: the concentration for half-maximal inhibition (IC50) was < 1 µM.

With `CC(C)n1ncnc1-c1cn2c(n1)-c1cnc(OC(C)(C)C(N)=O)cc1OCC2`, the concentration for half-maximal inhibition (IC50) is < 1 µM.

As to `NC(=O)[C@@H]1CCCN1c1cc2c(cn1)-c1nc(-c3ncnn3-c3ccccc3Cl)cn1CCO2`, the 50% inhibitory concentration (IC50) is < 1 µM.

For `CC(C)n1ncnc1-c1cn2c(n1)-c1ccc(C3CCN(CC(=O)N(C)C)CC3)cc1OCC2`, the IC50 was < 1 µM.

On to `CC(C)n1nc(N)nc1-c1cn2c(n1)-c1cc(F)ccc1OCC2`, for which the half-inhibitory concentration (IC50) was < 1 µM.

For `Cc1nc(-c2cn3c(n2)-c2ccc(Br)cc2OCC3)n(C(C)C)n1`, the IC50 is < 1 µM.

`CC(C)n1ncnc1-c1cn2c(n1)-c1ccc(CC(N)=O)cc1OCC2`: the IC50 was < 1 µM.

As to `CC(C)(CO)NC(=O)c1ccc2c(c1)-c1nc(-c3ncnn3C3CCS(=O)(=O)C3)cn1CCO2` (stereo not given), the IC50 is < 1 µM.

For the compound `COC[C@H](Nc1ccc2c(c1)OCCn1cc(-c3ncnn3CC(F)(F)F)nc1-2)C(N)=O`, the IC50 is < 1 µM.

The IC50 is the point on the concentration scale where inhibition reaches its midpoint. A high value points to a need for much substance.
